From patent US7994159B2, “c-Kit kinase inhibitor” (Eisai R&D Management Co., Ltd., priority 2003, dated 2011)

How the values were obtained:
c-Kit kinase [1] = target: T1, c-Kit kinase (Homo sapiens, UniProt P10721); experiment: c-Kit kinase phosphorylation by SCF stimulation in H-526 cells (immunoblot, phospho-c-kit Tyr719); assay type: cell-based; design: in the small cell lung cancer cell line H-526 expressing c-Kit kinase; host or cells: H-526 small cell lung cancer cells; conditions: 1 hour test substance then 5 minutes SCF, FIG. 1
T1 sequence (P10721 26-976): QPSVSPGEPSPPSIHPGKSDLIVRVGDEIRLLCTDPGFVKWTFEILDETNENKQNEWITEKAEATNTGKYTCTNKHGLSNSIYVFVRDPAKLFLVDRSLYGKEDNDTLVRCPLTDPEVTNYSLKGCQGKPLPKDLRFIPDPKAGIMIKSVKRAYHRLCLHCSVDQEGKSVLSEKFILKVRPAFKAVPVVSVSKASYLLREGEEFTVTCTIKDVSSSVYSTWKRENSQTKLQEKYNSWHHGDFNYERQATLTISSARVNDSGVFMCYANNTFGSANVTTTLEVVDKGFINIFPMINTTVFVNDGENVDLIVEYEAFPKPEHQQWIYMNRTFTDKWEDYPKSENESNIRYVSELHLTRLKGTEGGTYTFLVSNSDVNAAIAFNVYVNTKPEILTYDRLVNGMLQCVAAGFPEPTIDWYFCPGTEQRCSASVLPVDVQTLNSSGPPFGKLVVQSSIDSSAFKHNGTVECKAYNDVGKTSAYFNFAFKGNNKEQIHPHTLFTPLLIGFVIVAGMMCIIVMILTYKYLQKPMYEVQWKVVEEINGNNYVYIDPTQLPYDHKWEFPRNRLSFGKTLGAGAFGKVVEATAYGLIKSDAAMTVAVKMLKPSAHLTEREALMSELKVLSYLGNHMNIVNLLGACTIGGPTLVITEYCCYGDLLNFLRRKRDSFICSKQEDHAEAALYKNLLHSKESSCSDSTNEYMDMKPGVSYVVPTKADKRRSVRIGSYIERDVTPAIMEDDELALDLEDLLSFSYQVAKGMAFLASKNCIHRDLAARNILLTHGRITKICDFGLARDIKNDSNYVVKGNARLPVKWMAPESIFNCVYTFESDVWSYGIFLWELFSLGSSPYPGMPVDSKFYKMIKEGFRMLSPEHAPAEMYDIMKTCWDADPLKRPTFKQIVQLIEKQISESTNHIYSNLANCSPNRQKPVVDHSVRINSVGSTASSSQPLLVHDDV
Procedure: H-526 cells were cultured in a 5% CO2 incubator (37° C.) using an RPMI1640 medium containing 10% FCS. After culturing, H-526 cells were washed with PBS three times and were suspended in a BSA-RPMI1640 medium at 5.0×10^5 cells/ml. Each 1 ml of this cell suspension was inoculated to the well of a 24-well plate and the suspension was cultured in a 5% CO2 incubator (37° C.) for 6 hours. After 6-hours culturing, 1 ml of BSA-RPMI1640 containing a diluted test substance was added to each well and culturing was carried out in a 5% CO2 incubator (37° C.) for 1 hour. […] After 5-minutes culturing, the cells were washed with PBS and 100 μl of SDS sample loading buffer was added to the cells to prepare a cell lysate sample. After the sample was heat-treated at 94° C. for 10 minutes, it was cryopreserved at -20° C. […] After electrophoresis, the sample was transferred to a PVDF membrane (Amersham Pharmacia Biotech Inc.) for 3 hours. The transferred membrane was subjected to immunoblot using a phospho-c-kit ([…]) antibody (Cell Signaling Technology Inc.) as a primary antibody and an anti-rabbit IgG, HRP-linked antibody (Cell Signaling Technology Inc.) as a secondary antibody. After the membrane was washed, it was developed with a Super Signal (Pierce Biotechnology, Inc.).

H-526 tumor = experiment: Growth of H-526 tumor transplanted to nude mice; assay type: in vivo, Balb/c nu/nu mice; conditions: oral, twice daily for 14 days, FIG. 2
Procedure: H-526 cells were cultured in a 5% CO2 incubator (37° C.) using an RPMI1640 medium containing 10% FCS. After the culture medium was collected, H-526 cells were washed with PBS twice and were suspended in PBS at 5.0×10^7 cells/ml. This cell suspension (0.1 ml) was transplanted to the subcutaneous parts of the right flank of 6-week female Balb/c nu/nu mice (purchased from Charles River Laboratories, Inc.). After transplantation, administration of a test substance was started at the point the tumor volume reached approximately 150 mm^3, and thus, oral administration was conducted twice daily for a period of 14 days. The test substance was suspended in a 0.5% methylcellulose solution (Wako Pure Chemical Industries Co., Ltd.) so as to give a dose of 0.1 ml/10 g body weight.
The tumor volume was measured with a caliper twice weekly during the administration period. The long and short diameters of the tumor were measured with a caliper and the tumor volume was calculated according to the equation: ½×long diameter×short diameter×short diameter. Here, the experiment was conducted in a vehicle control group of 10 animals (solvent-administered group) as well as in a test substance administered group of 5 animals.

[2] = system: small cell lung cancer cell line H-526 expressing c-Kit kinase; experiment: Effect on proliferation of H-526 cells stimulated by SCF (Cell Counting Kit-8); assay type: cell-based; conditions: Homo sapiens, NCI-H526, 7th day after addition of test substance, read-out: IC50, concentration required for 50% inhibition of the cell proliferation stimulated by SCF
Procedure: H-526 cells were cultured in a 5% CO2 incubator (37° C.) using an RPMI1640 medium (Nissui Pharmaceutical Co., Ltd.) containing 10% FCS (purchased from Cell Culture Technologies). After culturing, H-526 cells were washed with PBS three times and were suspended in an RPMI1640 medium containing 0.1% BSA (Sigma Corporation) (hereinafter abbreviated as “BSA-RPMI1640”) at 1.0×10^5 cells/ml. […] On the 7th day after addition of the test substance, 20 μl of Cell Counting Kit-8 (Dojin Laboratories) was added to the well and was cultured in a 5% CO2 incubator (37° C.) for about 2 hours. After color development, the absorbance of each well was determined using a MTP-32 plate reader (Colona Electric Co., Ltd.) at a measuring wavelength of 450 nm and at a reference wavelength of 660 nm. The absorbance of each well was subtracted by the absorbance of the well without addition of SCF, and then the ratio of the absorbance of the well with addition of the test substance to the ratio of the absorbance of the well without addition of the test substance was determined. This ratio was used to calculate the concentration of the test substance required for 50% inhibition of the cell proliferation (IC50).

c-Kit kinase [3] = target: T1, c-Kit kinase; experiment: c-Kit kinase phosphorylation in H-526 tumor transplanted to nude mice (immunoblot); assay type: in vivo, Balb/c nu/nu mice; design: Compound 1 reduced phosphorylated c-Kit in tumor tissue when administered at 30 or 100 mg/kg; from tissue; host or cells: H-526 tumour grown subcutaneously in female Balb/c nu/nu mice; conditions: H-526 tumor in nude mice, FIG. 3
Procedure: 0.1 ml of a H-526 cell suspension prepared at a concentration of 5.0×10^7 cells/ml, was transplanted to the subcutaneous parts of the right latus of 6-week female Balb/c nu/nu mice (purchased from Charles River Laboratories, Inc.). The animals were then divided into a vehicle control group (solvent-administered group) and a test substance administered group at the point the tumor volume reached 300-1000 mm^3: the test substance was administered to the latter group. […] After centrifugation, the supernatant was protein quantified, and a 3×SDS sample loading buffer was added to prepare a cell lysate sample. Subsequently, the cell lysate was heat-treated at 94° C. for 10 minutes and cryopreserved at -20° C. […] After electrophoresis, the sample was transferred to a PVDF membrane (Amersham Pharmacia Biotech Inc.) for 3 hours. In order to assay phosphorylated c-Kit, c-Kit and β-actin, immunoblot was performed using a phospho-c-kit ([…]) antibody (Cell Signaling Technologies, Inc.), an anti c-Kit antibody (Cell Signaling Technologies, Inc.) and an anti β-actin antibody (Sigma) as a primary antibody and an anti-rabbit IgG, HRP-linked antibody (Cell Signaling Technologies, Inc.) as a secondary antibody. After the membrane was washed, it was developed with a Super Signal (Pierce Biotechnology, Inc.).

## COc1cc2nccc(Oc3ccc(NC(=O)NC4CC4)c(Cl)c3)c2cc1C(N)=O [Compound 1, 4-(3-Chloro-4-(cyclopropylaminocarbonyl)aminophenoxy)-7-methoxy-6-quinolinecarboxamide]
c-Kit kinase [1]
  suppression of c-Kit kinase phosphorylation in the presence of SCF: suppressed the c-Kit kinase phosphorylation that would take place in the presence of SCF in a concentration-dependent manner
H-526 tumor
  growth of nude mouse transplanted H-526 tumor (tumor volume): suppressed the growth of the nude mouse transplanted H-526 tumor in a dose-dependent manner
[2]
  IC50: 9.36 nM
c-Kit kinase [3]; 30 or 100 mg/kg
  c-Kit and β-actin in tumor tissue: remained unchanged
  phosphorylated c-Kit in tumor tissue: completely inhibited phosphorylation

## CCNC(=O)Nc1ccc(Oc2ccnc3cc(OC)c(C(N)=O)cc23)cc1Cl [Compound 2, 4-(3-Chloro-4-(ethylaminocarbonyl)aminophenoxy)-7-methoxy-6-quinolinecarboxamide]
[2]
  IC50: 12.8 nM

## CONC(=O)c1cc2c(Oc3ccc(NC(=O)NC4CC4)c(Cl)c3)ccnc2cc1OC [Compound 3, N6-Methoxy-4-(3-chloro-4-(((cyclopropylamino)carbonyl)amino)phenoxy)-7-methoxy-6-quinolinecarboxamide]
[2]
  IC50: 214 nM

## CCNC(=O)Nc1ccc(Oc2ccnc3cc(OC)c(C(=O)NOC)cc23)cc1Cl [Compound 4, N6-Methoxy-4-(3-chloro-4-(((ethylamino)carbonyl)amino)phenoxy)-7-methoxy-6-quinolinecarboxamide]
[2]
  IC50: 56.3 nM

## Cc1ccc(NC(=O)c2ccc(CN3CCN(C)CC3)cc2)cc1Nc1nccc(-c2cccnc2)n1 [STI571, reference compound]
H-526 tumor; 160 mg/kg
  anti-tumor effect on nude mouse transplanted H-526 tumor: little anti-tumor effect
c-Kit kinase [3]; 160 mg/kg
  phosphorylated c-Kit in tumor tissue: partially inhibited phosphorylation
